Among the data in PMC3189207, “DomPep—A General Method for Predicting Modular Domain-Mediated Protein-Protein Interactions” (PLoS ONE, 2011) are Kd values, retold here.

The target of one assay is T1, Scrib PDZ-3 domain (Homo sapiens, UniProt Q14160).
T1 construct: ROC curves of DomPep prediction for the three Scrib PDZ-1/2/3 domains
T1 sequence (Q14160 1004-1093 limits assumed): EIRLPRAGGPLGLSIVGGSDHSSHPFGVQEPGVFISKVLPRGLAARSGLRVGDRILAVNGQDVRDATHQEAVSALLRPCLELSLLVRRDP
Briefly: In-solution fluorescence polarization binding of peptides to Scrib PDZ3. The conditions noted are these: Kd value of 100 µM applied as binding cutoff, NB without definition. The source says:
Because DomPep compared favorably to MDSM in identifying ligands for a PDZ domain included in the training set and to SPSSM in identifying binding peptides for an untrained PDZ domain, we next tested it whether it could reliably PPIs mediated by a PDZ domain on the genome scale. To this end, we employed three DomPep models to predict interactions between the Scrib PDZ domains and human proteins from the Swiss-Prot protein database. The three prediction models, which were generated for the mouse Scrib PDZ-1, PDZ-2 and PDZ-3 domains, were trained with 6, 5 and 30 positive peptide, respectively (Table S1). Searching the protein database with these models yielded a list of potential PDZ ligands. […] This experiment identified 14, 14, and 38 positives for the PDZ-1, -2, and -3 domains, respectively (Table 1). […] Importantly, we identified four peptides that were not included in the training set as physiological binders to the Scrib PDZ domains. The corresponding proteins, namely APC, LPP, VANGL2 and ZO2, were previously reported to interact with Scrib in vivo via its PDZ domains, [36], [37], [38], [39].
Figure 4 Application of DomPep to the prediction of PDZ-binding ligands. ROC curves of DomPep prediction for the three Scrib PDZ-1/2/3 domains using 56 peptides selected from the human protein database as the test set. The respective affinities of the three domains for the 56 peptides were measured by fluorescence polarization (Table 1).
For orientation: Polarisation of emitted light reports the rotation of a fluorescent probe.

A further assay has as its target T2, Scrib PDZ-2 domain (Homo sapiens, UniProt Q14160).
T2 construct: ROC curves of DomPep prediction for the three Scrib PDZ-1/2/3 domains
T2 sequence (Q14160 862-950 limits assumed): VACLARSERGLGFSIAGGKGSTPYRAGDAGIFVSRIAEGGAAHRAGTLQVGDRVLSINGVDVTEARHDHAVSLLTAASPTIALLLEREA
Briefly: In-solution fluorescence polarization binding of peptides to Scrib PDZ2. The conditions noted are these: Kd value of 100 µM applied as binding cutoff, NB without definition, read-out: Kd (µM) PDZ2.

The next assay concerns the target T3, Scrib PDZ-1 domain (Homo sapiens, UniProt Q14160).
T3 construct: ROC curves of DomPep prediction for the three Scrib PDZ-1/2/3 domains
Nature of the assay: In-solution fluorescence polarization binding of peptides to Scrib PDZ1. The conditions noted are these: Kd value of 100 µM applied as binding cutoff, NB without definition, read-out: Kd (µM) PDZ1.

Residues, ends and D or L forms follow the SMILES beside them.

T3 sequence (Q14160 728-815 limits assumed): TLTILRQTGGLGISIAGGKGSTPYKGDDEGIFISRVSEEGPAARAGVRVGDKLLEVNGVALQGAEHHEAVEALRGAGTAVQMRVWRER

On to `CC(C)C[C@H](NC(=O)[C@H](CCC(=O)O)NC(=O)[C@H](CCC(=O)O)NC(=O)[C@H](CCCNC(=N)N)NC(=O)[C@@H](NC(=O)[C@H](C)NC(=O)[C@H](CO)NC(=O)[C@@H](NC(=O)[C@H](CCCCN)NC(=O)[C@@H](N)CCC(=O)O)C(C)C)[C@@H](C)O)C(=O)O` (H-EKVSATREEL-OH), for which the Kd (in general, a measure of binding affinity in units of concentration) on Scrib PDZ-3 domain is 88.1 µM; on Scrib PDZ-2 domain, > 100 µM; at Scrib PDZ-1 domain it was > 100 µM.
On to `CC(C)C[C@H](NC(=O)[C@@H](N)C(C)C)C(=O)N[C@@H](CCC(N)=O)C(=O)N[C@@H](CCCNC(=N)N)C(=O)N[C@@H](Cc1c[nH]cn1)C(=O)N[C@H](C(=O)N[C@H](C(=O)NCC(=O)N[C@@H](CCCCN)C(=O)N[C@@H](C)C(=O)O)[C@@H](C)O)[C@@H](C)O` [ACBD6] (H-VLQRHTTGKA-OH; N-terminus and C-terminus assumed), for which the Kd on Scrib PDZ-3 domain, at Scrib PDZ-2 domain and on Scrib PDZ-1 domain was > 100 µM throughout.
For `CC(C)C[C@H](NC(=O)[C@H](CC(C)C)NC(=O)[C@@H](NC(=O)CNC(=O)[C@H](Cc1ccc(O)cc1)NC(=O)[C@H](CC(C)C)NC(=O)[C@H](CCC(N)=O)NC(=O)[C@H](C)NC(=O)[C@@H](N)CCCCN)[C@@H](C)O)C(=O)N[C@@H](CC(N)=O)C(=O)O` [BEGAIN] (H-KAQLYGTLLN-OH; N-terminus and C-terminus assumed), the Kd at Scrib PDZ-3 domain, at Scrib PDZ-2 domain and at Scrib PDZ-1 domain was > 100 µM each time.
Regarding `CC(C)C[C@H](NC(=O)[C@H](CCC(=O)O)NC(=O)[C@H](CCCNC(=N)N)NC(=O)[C@H](Cc1c[nH]c2ccccc12)NC(=O)[C@@H]1CCCN1C(=O)[C@@H]1CCCN1C(=O)[C@H](CC(=O)O)NC(=O)CNC(=O)[C@H](CCCNC(=N)N)NC(=O)[C@@H]1CCCN1)C(=O)O` [C19orf57] (H-PRGDPPWREL-OH; N-terminus and C-terminus assumed), the Kd at Scrib PDZ-3 domain, on Scrib PDZ-2 domain and on Scrib PDZ-1 domain was > 100 µM in each case.
For `CC(C)C[C@H](NC(=O)[C@H](CC(=O)O)NC(=O)[C@@H](NC(=O)[C@H](CO)NC(=O)[C@H](C)NC(=O)[C@H](CCCCN)NC(=O)[C@H](C)NC(=O)[C@@H](NC(=O)[C@H](CC(C)C)NC(=O)[C@@H](N)C(C)C)[C@@H](C)O)[C@@H](C)O)C(=O)O` [LPP] (H-VLTAKASTDL-OH), the values for the Kd on Scrib PDZ-2 domain and at Scrib PDZ-1 domain were > 100 µM and 24.2 µM, respectively.
The corresponding values for `CC(C)C[C@H](NC(=O)[C@@H]1CCCN1C(=O)[C@@H](NC(=O)[C@H](CCC(=O)O)NC(=O)[C@H](CCCCN)NC(=O)[C@H](CO)NC(=O)[C@@H](NC(=O)[C@H](CCCNC(=N)N)NC(=O)[C@H](C)NC(=O)CN)C(C)C)[C@@H](C)O)C(=O)O` [MAPK12] (H-GARVSKETPL-OH) are 56.1 µM and 20.3 µM.
The corresponding values for `CC[C@H](C)[C@H](NC(=O)[C@H](CCCNC(=N)N)NC(=O)[C@@H](NC(=O)[C@H](CCCNC(=N)N)NC(=O)[C@H](CO)NC(=O)[C@H](C)NC(=O)[C@@H](N)CC(N)=O)[C@@H](C)O)C(=O)N[C@H](C(=O)N[C@@H](Cc1ccccc1)C(=O)N[C@H](C(=O)O)C(C)C)[C@@H](C)O` [MCM7] (H-NASRTRITFV-OH) are > 100 µM and > 100 µM.
`CC[C@H](C)[C@H](NC(=O)[C@@H]1CCCN1C(=O)[C@H](Cc1c[nH]cn1)NC(=O)[C@@H](NC(=O)[C@@H](N)Cc1ccccc1)C(C)C)C(=O)N[C@@H](CC(C)C)C(=O)N[C@@H](CCC(N)=O)C(=O)N[C@@H](CO)C(=O)N[C@@H](C)C(=O)N[C@H](C(=O)O)C(C)C` [PRKCA] (H-FVHPILQSAV-OH): the figures for the Kd on Scrib PDZ-2 domain and on Scrib PDZ-1 domain were 46 µM and 17.4 µM, respectively.
The corresponding values for `CC(C)[C@H](NC(=O)[C@H](CO)NC(=O)[C@@H](NC(=O)[C@@H](NC(=O)[C@@H](NC(=O)[C@H](CCCNC(=N)N)NC(=O)[C@@H](NC(=O)[C@H](CCCCN)NC(=O)[C@H](C)NC(=O)[C@@H](N)CO)C(C)C)[C@@H](C)O)C(C)C)[C@@H](C)O)C(=O)O` [RASL11B] (H-SAKVRTVTSV-OH) are > 100 µM and > 100 µM.
The corresponding values for `CC(C)C[C@H](NC(=O)[C@@H](NC(=O)[C@@H](NC(=O)[C@H](CO)NC(=O)[C@@H]1CCCN1C(=O)[C@H](CC(C)C)NC(=O)[C@H](CCCCN)NC(=O)[C@H](CCCNC(=N)N)NC(=O)[C@@H](NC(=O)[C@@H](N)CCCNC(=N)N)C(C)C)[C@@H](C)O)[C@@H](C)O)C(=O)O` [RPS6KA1] (H-RVRKLPSTTL-OH) are > 100 µM and > 100 µM.
The corresponding values for `CSCC[C@H](NC(=O)CN)C(=O)N[C@@H](CCCCN)C(=O)N[C@@H](CCCNC(=N)N)C(=O)N[C@@H](CC(C)C)C(=O)N[C@H](C(=O)N[C@@H](CO)C(=O)N[C@H](C(=O)N[C@@H](CCCNC(=N)N)C(=O)N[C@@H](CC(C)C)C(=O)O)[C@@H](C)O)[C@@H](C)O` [RPS6KA2] (H-GMKRLTSTRL-OH) are 62.7 µM and > 100 µM.
In the case of `CC(C)C[C@H](NC(=O)[C@H](CC(N)=O)NC(=O)[C@H](CCC(=O)O)NC(=O)CNC(=O)[C@@H]1CCCN1C(=O)[C@H](CCC(N)=O)NC(=O)[C@H](Cc1ccc(O)cc1)NC(=O)[C@H](CCC(N)=O)NC(=O)[C@@H]1CCCN1C(=O)[C@@H](N)CCC(=O)O)C(=O)O` [SRC] (H-EPQYQPGENL-OH), the Kd at Scrib PDZ-2 domain and on Scrib PDZ-1 domain was > 100 µM in each case.
Regarding `CC[C@H](C)[C@H](NC(=O)[C@H](CCC(N)=O)NC(=O)[C@@H](NC(=O)[C@@H](NC(=O)[C@H](Cc1c[nH]cn1)NC(=O)[C@H](CCC(N)=O)NC(=O)CNC(=O)[C@@H]1CCCN1C(=O)[C@H](C)NC(=O)[C@@H]1CCCN1)[C@@H](C)O)[C@@H](C)O)C(=O)O` [STK16] (H-PAPGQHTTQI-OH), the Kd on Scrib PDZ-2 domain and at Scrib PDZ-1 domain was > 100 µM each time.
For the compound `CC(C)C[C@H](NC(=O)[C@H](CO)NC(=O)[C@H](CO)NC(=O)[C@H](CCC(=O)O)NC(=O)[C@H](Cc1ccc(O)cc1)NC(=O)[C@H](CO)NC(=O)[C@@H](NC(=O)[C@H](C)NC(=O)[C@@H](NC(=O)[C@@H](N)CCCCN)C(C)C)[C@@H](C)O)C(=O)O` [STK29] (H-KVATSYESSL-OH), the Kd on Scrib PDZ-2 domain and at Scrib PDZ-1 domain was > 100 µM throughout.
`CSCC[C@H](NC(=O)[C@H](Cc1ccccc1)NC(=O)[C@H](C)NC(=O)[C@@H](N)Cc1c[nH]c2ccccc12)C(=O)N[C@@H](CCCNC(=N)N)C(=O)N[C@@H](Cc1ccc(O)cc1)C(=O)N[C@@H](CCCNC(=N)N)C(=O)N[C@@H](CCC(N)=O)C(=O)N[C@@H](CCC(N)=O)C(=O)N[C@@H](CC(C)C)C(=O)O` [SYNJ2BP] (H-WAFMRYRQQL-OH): the Kd at Scrib PDZ-2 domain and at Scrib PDZ-1 domain was > 100 µM in each case.
With `CC[C@H](C)[C@H](NC(=O)[C@H](CO)NC(=O)[C@H](CO)NC(=O)[C@H](CCC(=O)O)NC(=O)[C@H](C)NC(=O)[C@H](CO)NC(=O)[C@H](C)NC(=O)[C@@H](NC(=O)[C@H](CC(=O)O)NC(=O)[C@@H](N)C(C)C)[C@@H](C)CC)C(=O)O` [TANK] (H-VDIASAESSI-OH), the Kd is > 100 µM on Scrib PDZ-2 domain and 102 µM at Scrib PDZ-1 domain.
As to `CC[C@H](C)[C@H](NC(=O)[C@H](CC(=O)O)NC(=O)[C@H](CC(N)=O)NC(=O)[C@H](CC(C)C)NC(=O)[C@H](C)NC(=O)[C@H](CC(N)=O)NC(=O)[C@@H](N)CC(=O)O)C(=O)N[C@H](C(=O)N[C@@H](CO)C(=O)N[C@@H](CC(C)C)C(=O)O)[C@@H](C)O` [TPM2] (H-DNALNDITSL-OH), the Kd at Scrib PDZ-2 domain and on Scrib PDZ-1 domain was > 100 µM each time.
As to `CC[C@H](C)[C@H](NC(=O)[C@@H](NC(=O)[C@H](CCC(=O)O)NC(=O)[C@H](CO)NC(=O)[C@@H]1CCCN1C(=O)[C@H](CCC(N)=O)NC(=O)[C@H](C)NC(=O)[C@H](CO)NC(=O)[C@@H](N)CO)[C@@H](C)O)C(=O)N[C@@H](CC(C)C)C(=O)O` [ZNF654] (H-SSAQPSETIL-OH), the Kd was 32.1 µM at Scrib PDZ-2 domain and > 100 µM at Scrib PDZ-1 domain.
The matching figures for `CC(C)C[C@H](NC(=O)[C@H](CCC(=O)O)NC(=O)[C@@H](NC(=O)[C@H](CC(=O)O)NC(=O)[C@H](Cc1ccc(O)cc1)NC(=O)[C@H](CCCNC(=N)N)NC(=O)[C@H](C)NC(=O)[C@H](CO)NC(=O)[C@@H](N)CCC(N)=O)[C@@H](C)O)C(=O)O` [ZO2] (H-QSARYDTEL-OH): > 100 µM and 16 µM.
The corresponding values for `CC(C)C[C@H](NC(=O)[C@H](CC(N)=O)NC(=O)[C@@H](NC(=O)[C@H](CCC(=O)O)NC(=O)[C@H](CC(=O)O)NC(=O)[C@H](Cc1c[nH]c2ccccc12)NC(=O)[C@H](C)NC(=O)[C@@H]1CCCN1C(=O)[C@H](CC(=O)O)NC(=O)[C@@H](N)CC(N)=O)[C@@H](C)O)C(=O)O` [b-PIX] (H-NDPAWDETNL-OH) are 16.8 µM and 5.3 µM.
